Laboratory results: patent US20240043470A1, “MACROCYCLIC COMPOUNDS AS PROTEASOME INHIBITORS” (CORNELL UNIVERSITY, priority 2017, published 2024)

Molecular target: β5c of hu c-20S (Homo sapiens (Human), UniProt P20618+P28074)
Experiment: IC50 determination against β5c of human constitutive proteasome (suc-LLVY-AMC hydrolysis);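 also: IC50 obtained by fitting initial reaction velocities to a dose-dependent inhibition model, with SDS present as proteasome activator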
Format: biochemical
Conditions: 0.2 nM c-20S, 25 μM suc-LLVY-AMC

| SMILES | IC50 [µM] |
| --- | --- |
| CS(=O)(=O)CCNC(=O)[C@@H]1Cc2cccc(c2)Oc2cccc(c2)C[C@H](NC(=O)CO)C(=O)N[C@@H](CCc2ccccc2)C(=O)N1 [Compound 1-46] | 9.5 |
| CCC(=O)N[C@H]1Cc2cccc(c2)Oc2cccc(c2)C[C@@H](C(=O)NCC2CC2)NC(=O)[C@H](CCc2ccccc2)NC1=O [Compound 1-07] | 1.12 |
| CCN[C@H]1Cc2cccc(c2)Oc2cccc(c2)C[C@@H](C(=O)NC2CCCC2)NC(=O)[C@H](CCc2ccccc2)NC1=O [Compound 1-24, (5S,8S,11S)—N-Cyclopentyl-11-(methylamino)-7,10-dioxo-8-phenethyl-2-oxa-6,9-diaza-1,3(1,3)-dibenzenacyclododecaphane-5-carboxamide] | 100 |
| CCCN(CCC)[C@H]1Cc2cccc(c2)Oc2cccc(c2)C[C@@H](C(=O)NCc2ccccc2)NC(=O)[C@H](CCc2ccccc2)NC1=O [Compound 1-09] | 0.503 |
| COC(=O)N[C@H]1Cc2cccc(c2)Oc2cccc(c2)C[C@@H](C(=O)NCC2CC2)NC(=O)[C@H](CCc2ccccc2)NC1=O [Compound 1-06] | 0.542 |
| CC(C)NC(=O)[C@@H]1Cc2cccc(c2)Oc2cccc(c2)C[C@H](NC(=O)c2ccccc2)C(=O)N[C@@H](CCc2ccccc2)C(=O)N1 [Compound 1-26] | 6.93 |
| CCNC(=O)[C@@H]1Cc2cccc(c2)Oc2cccc(c2)C[C@H](N(CC)CC)C(=O)N[C@@H](CCc2ccccc2)C(=O)N1 [Compound 1-27] | 1.14 |
| O=C(NCC(F)(F)F)[C@@H]1CCCCOc2cccc(c2)C[C@H](N2CCCS2(=O)=O)C(=O)N[C@@H](CCN2CCOCC2)C(=O)N1 [Compound 3-19] | 45 |
| O=C1CCc2cccc(c2)OCCCC[C@@H](C(=O)NC2CCCC2)NC(=O)[C@H](CCN2CCOCC2)N1 [Compound 3-25, (6S,9S)—N-Cyclopentyl-9-(2-morpholinoethyl)-8,11-dioxo-2-oxa-7,10-diaza-1(1,3)-benzenacyclotridecaphane-6-carboxamide] | 24.1 |
| CCCN(CCC)[C@H]1Cc2cccc(c2)Oc2cccc(c2)C[C@@H](C(=O)NC2CCCC2)NC(=O)[C@H](CCc2ccccc2)NC1=O [Compound 1-21] | 3.4 |
| O=C(CO)N[C@H]1Cc2cccc(c2)Oc2cccc(c2)C[C@@H](C(=O)NC2CCCC2)NC(=O)[C@H](CCc2ccccc2)NC1=O [Compound 1-20] | 3.25 |
| Cn1cc(CNC(=O)[C@@H]2Cc3cccc(c3)Oc3cccc(c3)C[C@H](N3CCCCC3)C(=O)N[C@@H](CCc3ccccc3)C(=O)N2)cn1 [Compound 1-01, (5S,8S,11S)—N-((1-Methyl-1H-pyrazol-4-yl)methyl)-7,10-dioxo-8-phenethyl-11-(piperidin-1-yl)-2-oxa-6,9-diaza-1,3(1,3)-dibenzenacyclododecaphane-5-carboxamide] | 0.402 |
| CCN(CC)[C@H]1Cc2cccc(c2)Oc2cccc(c2)C[C@@H](C(=O)NCc2cnn(C)c2)NC(=O)[C@H](CCc2ccccc2)NC1=O [Compound 1-02] | 0.55 |
| Cc1nn(C)cc1CNC(=O)[C@@H]1Cc2cccc(c2)Oc2cccc(c2)C[C@H](NS(C)(=O)=O)C(=O)N[C@@H](CCc2ccccc2)C(=O)N1 [Compound 1-38] | 4.29 |
| CN1CCC(C(=O)N[C@H]2Cc3cccc(c3)Oc3cccc(c3)C[C@@H](C(=O)NCc3cnn(C)c3)NC(=O)[C@H](CCc3ccccc3)NC2=O)CC1 [Compound 1-03, (5S,8S,11S)—N-((1-Methyl-1H-pyrazol-4-yl)methyl)-11-(1-methylpiperidine-4-carboxamido)-7,10-dioxo-8-phenethyl-2-oxa-6,9-diaza-1,3(1,3)-dibenzenacyclododecaphane-5-carboxamide] | 1 |
| COCC(=O)N[C@H]1Cc2cccc(c2)Oc2cccc(c2)C[C@@H](C(=O)NCC2CCCO2)NC(=O)[C@H](CCc2ccccc2)NC1=O (stereo partly drawn) [Compound 1-47] | 9.7 |
| CC1(CNC(=O)[C@@H]2CCCCOc3cccc(c3)CCC(=O)N[C@@H](CCN3CCOCC3)C(=O)N2)CC1 [Compound 3-27] | 34.6 |
| O=C(CO)N[C@H]1Cc2cccc(c2)Oc2cccc(c2)C[C@@H](C(=O)NCc2ccccc2)NC(=O)[C@H](CCc2ccccc2)NC1=O [Compound 1-11] | 1.93 |
